≈ marks a conversion by molar mass, not a printed value. Where two headings read alike, the source gives them in different places.
Assays:
[1] = system: Streptococcus pyogenes C203; experiment: MIC, standard agar-dilution assay (Table V); type: cell-based; conditions: Streptococcus pyogenes, C203
Protocol: (§1) The MIC's in Tables V and VI were determined by standard agar-dilution assays. The MIC's in Table VII were obtained using a conventional broth-dilution microtiter test.

[2] = system: Haemophilus influenzae R252; experiment: MIC, standard agar-dilution assay (Table V); type: cell-based; conditions: Haemophilus influenzae, R252
Protocol: as §1

[3] = system: Haemophilus influenzae Holt; experiment: MIC, standard agar-dilution assay (Table V); type: cell-based; conditions: Haemophilus influenzae
Protocol: as §1

[4] = system: Streptococcus pyogenes C203; experiment: ED50 in mice experimentally infected with S. pyogenes C203 (Table VIII); type: in vivo
Protocol: The C-23 modified derivatives of OMT of this invention have shown in vivo antimicrobial activity against experimental infections. When two doses of test compound were administered to mice experimentally infected with a gram-positive bacterium, S. pyogenes C203, the activity observed was measured as an ED50 value [effective dose in mg/kg to protect 50% of the test animals: see Warren Wick, et al., J. Bacteriol. 81, 233-235 (1961)].

[5] = system: Citrobacter freundii CF17; experiment: MIC, standard agar-dilution assay (Table VI); type: cell-based
Protocol: (§2) Especially noteworthy is the improved activity against gram-negative bacteria for several derivatives when compared to the activity of OMT. […] The MIC's in Tables V and VI were determined by standard agar-dilution assays. The MIC's in Table VII were obtained using a conventional broth-dilution microtiter test.

[6] = system: Pseudomonas aeruginosa X528; experiment: MIC, standard agar-dilution assay (Table VI); type: cell-based
Protocol: as §2

Proteus morganii PR15 = experiment: MIC, standard agar-dilution assay (Table VI); type: cell-based; conditions: Morganella morganii, PR15
Protocol: as §2

[7] = system: Enterobacter aerogenes C32; experiment: MIC, standard agar-dilution assay (Table VI); type: cell-based; conditions: Klebsiella aerogenes, C32
Protocol: as §2

[8] = system: Salmonella heidelberg X514; experiment: MIC, standard agar-dilution assay (Table VI); type: cell-based; conditions: Salmonella enterica, X514
Protocol: as §2

Serratia marcescens X99 = experiment: MIC, standard agar-dilution assay (Table VI); type: cell-based; conditions: X99
Protocol: as §2

[9] = system: Pseudomonas aeruginosa Ps18; experiment: MIC, standard agar-dilution assay (Table VI); type: cell-based
Protocol: as §2

Serratia marcescens SE3 = experiment: MIC, standard agar-dilution assay (Table VI); type: cell-based
Protocol: as §2

Enterobacter cloacae EB5 = experiment: MIC, standard agar-dilution assay (Table VI); type: cell-based
Protocol: as §2

Salmonella typhi 1335 = experiment: MIC, standard agar-dilution assay (Table VI); type: cell-based; conditions: Salmonella enterica
Protocol: as §2

Proteus inconstans PR33 = experiment: MIC, standard agar-dilution assay (Table VI); type: cell-based; conditions: Providencia alcalifaciens
Protocol: as §2

[10] = system: Enterobacter aerogenes EB17; experiment: MIC, standard agar-dilution assay (Table VI); type: cell-based; conditions: Klebsiella aerogenes, EB17
Protocol: as §2

Proteus rettgeri C24 = experiment: MIC, standard agar-dilution assay (Table VI); type: cell-based; conditions: Providencia rettgeri, P. rettgeri C24
Protocol: as §2

[11] = system: Pseudomonas aeruginosa X239; experiment: MIC, standard agar-dilution assay (Table VI); type: cell-based; conditions: X239
Protocol: as §2

[12] = system: Klebsiella pneumoniae X68; experiment: MIC, standard agar-dilution assay (Table VI); type: cell-based; conditions: X68
Protocol: as §2

Proteus rettgeri PR7 = experiment: MIC, standard agar-dilution assay (Table VI); type: cell-based; conditions: Providencia rettgeri; P. rettgeri PR7; agar dilution; read-out: MIC
Protocol: as §2

Mycoplasma synoviae = experiment: MIC, broth-dilution microtiter test (Table VII); type: cell-based; conditions: Mycoplasmopsis synoviae; M. synoviae; broth-dilution microtiter; read-out: MIC
Protocol: as §2

[13] = system: Pasteurella multocida 17E; experiment: MIC, broth-dilution microtiter test (Table VII); type: cell-based; conditions: Pasteurella multocida; P. multocida 17E, bovine isolate; broth-dilution microtiter; read-out: MIC
Outline: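 Broth microdilution, run as a conventional microtiter test, supplied MICs for the gram-positive S. aureus and the Pasteurella isolates. Enterobacter data instead rest on a standard agar-dilution procedure.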

[14] = system: Streptococcus pneumoniae Park I; experiment: microbe, parasite or virus in culture; type: cell-based; conditions: Streptococcus pneumoniae; read-out: MIC
Protocol: as §2

[15] = system: Staphylococcus aureus V41; experiment: MIC, standard agar-dilution assay (Table V); type: cell-based; conditions: Staphylococcus aureus, V41
Protocol: as §2

Escherichia coli EC14 = experiment: MIC, standard agar-dilution assay (Table V); type: cell-based; conditions: Escherichia coli
Outline: (§3)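 Growth inhibition in liquid medium, in a routine microtiter broth-dilution series, gave the MIC against staphylococci and pasteurellae; the gram-negative enteric strain was tested by conventional agar dilution instead.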

Streptococcus Group 9960 = experiment: MIC, standard agar-dilution assay (Table V); type: cell-based; conditions: GROUP9960; Streptococcus Group 9960; agar dilution; read-out: MIC
Protocol: as §2

[16] = system: Klebsiella pneumoniae X26; experiment: MIC, standard agar-dilution assay (Table V); type: cell-based; conditions: Klebsiella pneumoniae
Protocol: as §2

[17] = system: Staphylococcus aureus S13E; experiment: MIC, standard agar-dilution assay (Table V); type: cell-based; conditions: Staphylococcus aureus, S13E
Protocol: as §2

[18] = system: Staphylococcus aureus X400; experiment: MIC, standard agar-dilution assay (Table V); type: cell-based; conditions: Staphylococcus aureus, X400
Protocol: as §2

[19] = system: Staphylococcus aureus X1.1; experiment: MIC, standard agar-dilution assay (Table V); type: cell-based; conditions: Staphylococcus aureus
Protocol: as §2

[20] = system: Streptococcus Group D X66; experiment: MIC, standard agar-dilution assay (Table V); type: cell-based
Protocol: as §2

[21] = system: Staphylococcus epidermidis EPI2; experiment: MIC, standard agar-dilution assay (Table V); type: cell-based; conditions: Staphylococcus epidermidis
Protocol: as §2

[22] = system: Klebsiella pneumoniae KAE; experiment: MIC, standard agar-dilution assay (Table V); type: cell-based; conditions: Klebsiella pneumoniae
Outline: as §3

Shigella sonnei N9 = experiment: MIC, standard agar-dilution assay (Table V); type: cell-based
Outline: as §3

Escherichia coli N10 = experiment: MIC, standard agar-dilution assay (Table V); type: cell-based; conditions: Escherichia coli
Outline: as §3

[23] = system: Staphylococcus epidermidis EPI1; experiment: MIC, standard agar-dilution assay (Table V); type: cell-based; conditions: Staphylococcus epidermidis; S. epidermidis EPI1; agar dilution; read-out: MIC
Protocol: as §2

[24] = C203, sc, mice, subcutaneous, doses given 1 and 4 hours postinfection, read-out: ED50, Subcutaneous

SMILES	MIC [1] [µg/mL]	MIC [2] [µg/mL]	MIC [3] [µg/mL]	ED50 ([4]; C203, po, read-out: ED50, Oral) [mg/kg]	ED50 [4, 24] [mg/kg]	MIC (Proteus morganii PR15) [µg/mL]	MIC [7] [µg/mL]	MIC [8] [µg/mL]	MIC (Serratia marcescens X99) [µg/mL]	MIC (Salmonella typhi 1335) [µg/mL]	MIC [10] [µg/mL]	MIC (Proteus rettgeri C24) [µg/mL]	MIC [11] [µg/mL]	MIC [12] [µg/mL]	MIC (Proteus rettgeri PR7) [µg/mL]	MIC (Mycoplasma synoviae) [µg/mL]	MIC [13] [µg/mL]	MIC [14] [µg/mL]	MIC [15] [µg/mL]	MIC (Streptococcus Group 9960) [µg/mL]	also measured
CCC1OC(=O)CC(O)C(C)C(OC2OC(C)C(O)C(N(C)C)C2O)C(CC=O)CC(C)C(=O)C=CC(C)=CC1CN=[N+]=[N-] (centres unmarked) [Compound 8, 23-Deoxy-23-azido-OMT]	0.125 (≈ 0.201 µM)	1 (≈ 1.61 µM)	1 (≈ 1.61 µM)	> 100	6.3	64 (≈ 103 µM)	64 (≈ 103 µM)	64 (≈ 103 µM)	64 (≈ 103 µM)	64 (≈ 103 µM)	64 (≈ 103 µM)	32 (≈ 51.4 µM)	64 (≈ 103 µM)	64 (≈ 103 µM)	32 (≈ 51.4 µM)	0.39 (≈ 0.626 µM)	1.56 (≈ 2.5 µM)	0.06 (≈ 0.0963 µM)	0.25 (≈ 0.401 µM)	0.5 (≈ 0.803 µM)	MIC ([5]; C. freundii CF17, agar dilution, read-out: MIC): > 128 µg/mL; MIC ([6]; P. aeruginosa X528, agar dilution, read-out: MIC): 16 µg/mL (≈ 25.7 µM); MIC ([9]; P. aeruginosa Ps18, agar dilution, read-out: MIC): 32 µg/mL (≈ 51.4 µM); MIC (Serratia marcescens SE3; S. marcescens SE3, agar dilution, read-out: MIC): > 128 µg/mL; MIC (Enterobacter cloacae EB5; E. cloacae EB5, agar dilution, read-out: MIC): > 128 µg/mL; MIC (Proteus inconstans PR33; P. inconstans PR33, agar dilution, read-out: MIC): > 128 µg/mL; MIC (Escherichia coli EC14; E. coli EC14, agar dilution, read-out: MIC): 32 µg/mL (≈ 51.4 µM); MIC ([16]; K. pneumoniae X26, agar dilution, read-out: MIC): 4 µg/mL (≈ 6.42 µM); MIC [17]: 0.25 µg/mL (≈ 0.401 µM); MIC [18]: 0.25 µg/mL (≈ 0.401 µM); MIC ([19]; S. aureus X1.1, agar dilution, read-out: MIC): 0.125 µg/mL (≈ 0.201 µM); MIC [20]: 0.25 µg/mL (≈ 0.401 µM); MIC ([21]; EPI2): 0.25 µg/mL (≈ 0.401 µM); MIC ([22]; K. pneumoniae KAE, agar dilution, read-out: MIC): > 128 µg/mL; MIC (Shigella sonnei N9): 32 µg/mL (≈ 51.4 µM); MIC (Escherichia coli N10; E. coli N10, agar dilution, read-out: MIC): 32 µg/mL (≈ 51.4 µM); MIC [23]: 0.125 µg/mL (≈ 0.201 µM)
CCC1OC(=O)CC(O)C(C)C(OC2OC(C)C(O)C(N(C)C)C2O)C(CC=O)CC(C)C(=O)C=CC(C)=CC1CSc1nnnn1C (centres unmarked) [Compound 5, 23-Deoxy-23-(1-methyltetrazol-5-yl)thio-OMT]	0.25 (≈ 0.359 µM)	2 (≈ 2.87 µM)	4 (≈ 5.75 µM)	> 100	13.7	> 128	> 128	> 128	> 128	> 128	> 128	64 (≈ 92 µM)	> 128	> 128	64 (≈ 92 µM)	0.78 (≈ 1.12 µM)	6.25 (≈ 8.98 µM)	0.06 (≈ 0.0862 µM)	0.5 (≈ 0.719 µM)	0.5 (≈ 0.719 µM)	MIC ([5]; CF17): > 128 µg/mL; MIC ([6]; X528): 64 µg/mL (≈ 92 µM); MIC ([9]; PS18): > 128 µg/mL; MIC (Serratia marcescens SE3; SE3): > 128 µg/mL; MIC (Enterobacter cloacae EB5; EB5): > 128 µg/mL; MIC (Proteus inconstans PR33; PR33): > 128 µg/mL; MIC (Escherichia coli EC14; EC14): 64 µg/mL (≈ 92 µM); MIC ([16]; X26): 4 µg/mL (≈ 5.75 µM); MIC [17]: 0.5 µg/mL (≈ 0.719 µM); MIC [18]: 0.5 µg/mL (≈ 0.719 µM); MIC ([19]; X1.1): 0.5 µg/mL (≈ 0.719 µM); MIC ([20]; Streptococcus Group D X66, agar dilution, read-out: MIC): 0.5 µg/mL (≈ 0.719 µM); MIC ([21]; S. epidermidis EPI2, agar dilution, read-out: MIC): 0.5 µg/mL (≈ 0.719 µM); MIC [22]: > 128 µg/mL; MIC (Shigella sonnei N9): 64 µg/mL (≈ 92 µM); MIC (Escherichia coli N10; N10): > 128 µg/mL; MIC [23]: 0.25 µg/mL (≈ 0.359 µM)

From patent US4459290A, “C-23-Modified derivatives of OMT, pharmaceutical compositions and method of use” (priority 1982, dated 1984)
